From patent publication US8524765B2, “Compounds that modulate intracellular calcium” (Calcimedica, Inc., priority 2007, dated 2013)
Entries after “also recorded” stand apart in the source; their conditions may differ. Read-outs that look alike come from different tables or passages of the source.

Experiments:
[1] = test system: rat T cells; test: Cell proliferation of rat T cells; type: cell-based; conditions: FIG. 5, read-out: IC50 for inhibition of cell proliferation
[2] = test system: store-operated calcium entry in RBL-2H3 cells; test: Fluorescence (FLUO-4/FLIPR384) store-operated calcium entry screening assay; type: cell-based, rat
Protocol: Fluorescence-based assays were used for screening the compounds described herein, such as compounds of Formula (I) and Formula (II), which modulate intracellular calcium.
RBL-2H3 cells plated in 384-well plates were loaded for 45 min with FLUO-4-AM (2 μM final concentration) in HBSS. Cells were washed and placed in a nominally Ca^2+- and Mg^2+-free Hanks solution. One minute later, a test agent or vehicle was added. After a 15 minute incubation period, 1 μM thapsigargin (Tg) was added to inhibit the ER Ca^2+ pump and discharge intracellular Ca^2+ stores. Fifteen minutes after addition of Tg, store-operated calcium entry was initiated by adding external Ca^2+ to a final concentration of 1.8 mM and the cells monitored for a further 10-15 minutes. Calcium levels were monitored throughout the assay using a FLIPR^384 (Molecular Devices fluorimetric imaging plate reader for high throughput screening).
A similar screening assay procedure was used with HEK293 and RBL-2H3 cells.
The kinetic data from the FLIPR^384 were analyzed and then stored in a relational database (ActivityBase; IDBS). Ten quantitative parameters were calculated that define various aspects of the store-operated calcium entry response. These parameters are as follows:
Up slope: linear regression of the increase in RFU from 2 to 30 sec after addition of Ca^2+.
Combinations of these parameters were used to characterize the compounds of Formula (I). Compounds were retested under identical conditions to confirm their activity. Compounds with confirmed activity were then analyzed for concentration-dependent effects, and subsequently, those compounds displaying concentration-dependent effects were categorized as compounds that modulate intracellular calcium.

[3] = target: T1, hOrail/hSTIM1 (Homo sapiens, UniProt Q96D31); test: Recombinant hOrail/hSTIM1-dependent Ca2+ entry in stable cells; type: cell-based; conditions: FIG. 14
T1 construct: expressed in transfected cells
T1 sequence (Q96D31 whole entry): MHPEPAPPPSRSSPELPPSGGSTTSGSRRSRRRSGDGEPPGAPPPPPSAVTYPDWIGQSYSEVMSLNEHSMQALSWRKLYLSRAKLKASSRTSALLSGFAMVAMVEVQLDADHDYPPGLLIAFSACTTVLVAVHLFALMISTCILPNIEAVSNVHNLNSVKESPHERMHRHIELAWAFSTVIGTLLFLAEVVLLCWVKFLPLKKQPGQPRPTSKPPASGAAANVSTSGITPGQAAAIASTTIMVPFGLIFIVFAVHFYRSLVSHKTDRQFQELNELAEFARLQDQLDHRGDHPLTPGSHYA
T1 sequence (Q13586 23-685 partner): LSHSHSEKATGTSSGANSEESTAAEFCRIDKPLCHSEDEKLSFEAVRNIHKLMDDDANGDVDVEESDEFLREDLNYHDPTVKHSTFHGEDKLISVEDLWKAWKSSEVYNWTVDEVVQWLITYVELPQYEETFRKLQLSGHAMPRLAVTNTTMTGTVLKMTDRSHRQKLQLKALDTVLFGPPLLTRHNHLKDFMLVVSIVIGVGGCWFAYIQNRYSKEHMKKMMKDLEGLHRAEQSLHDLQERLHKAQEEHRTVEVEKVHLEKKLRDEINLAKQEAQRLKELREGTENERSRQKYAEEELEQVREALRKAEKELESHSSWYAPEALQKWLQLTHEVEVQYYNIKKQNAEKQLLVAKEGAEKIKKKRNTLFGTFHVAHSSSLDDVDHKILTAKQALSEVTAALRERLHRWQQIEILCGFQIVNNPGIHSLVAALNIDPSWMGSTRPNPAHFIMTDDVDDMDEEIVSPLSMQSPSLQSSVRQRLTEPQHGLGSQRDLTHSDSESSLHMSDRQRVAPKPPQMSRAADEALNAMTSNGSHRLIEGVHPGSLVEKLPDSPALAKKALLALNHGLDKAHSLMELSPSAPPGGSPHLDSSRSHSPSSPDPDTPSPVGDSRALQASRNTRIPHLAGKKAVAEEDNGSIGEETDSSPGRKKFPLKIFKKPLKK

[4] = test system: HEK[STIM1] cells; test: STIM1-dependent Ca2+ entry in STIM1-overexpressing cells; type: cell-based, human; conditions: HEK293 overexpressing STIM1, no Tg store depletion; FIG. 13
Protocol: To test whether the Ca^2+ entry pathway activated by STIM1 overexpression is pharmacologically similar to endogenous SOCE, HEK[STIM1] cells were pre-incubated with increasing doses of 2-APB and STIM1-dependent Ca^2+ entry was measured.

[5] = test system: RBL-2H3 cells; test: Degranulation (β-hexosaminidase release) assay; type: cell-based; conditions: Rattus norvegicus
Protocol: To assess degranulation and cytokine release, RBL-2H3 cells were plated and stimulated with 20 nM thapsigargin/20 nM TPA for 20 hr in the presence or absence of compound of Formula (I) or Formula (II). Media was collected and assayed for the release of β-hexosaminidase or for the release of the inflammatory mediator cytokine TNF-α. The β-hexosaminidase enzymatic assay was performed by adding 200 μL 1 mM p-nitrophenyl-acetyl-glucosamide substrate (Sigma #N9376) in 0.05M Na Citrate (pH 4.5) to 50 μL of conditioned medium, incubating for 60 min at 37° C., then adding 500 μL 0.05M Na carbonate, 0.05M Na bicarbonate pH 10.5, mixing thoroughly, and reading the absorbance at 405 nm in a BioRad plate reader. The TNF-α release assay was performed using the Rat Tumor Necrosis Factor-a Ultrasensitive ELISA Kit from BioSource.

[6] = target: T2, hCav.1.2/β2/α2δ channels (Homo sapiens, UniProt Q13936); test: Cloned L-type calcium channels in CHO cells (PatchXpress patch clamp); type: cell-based; conditions: FIG. 16
T2 construct: host or cells: CHO cells
T2 sequence (Q13936 whole entry): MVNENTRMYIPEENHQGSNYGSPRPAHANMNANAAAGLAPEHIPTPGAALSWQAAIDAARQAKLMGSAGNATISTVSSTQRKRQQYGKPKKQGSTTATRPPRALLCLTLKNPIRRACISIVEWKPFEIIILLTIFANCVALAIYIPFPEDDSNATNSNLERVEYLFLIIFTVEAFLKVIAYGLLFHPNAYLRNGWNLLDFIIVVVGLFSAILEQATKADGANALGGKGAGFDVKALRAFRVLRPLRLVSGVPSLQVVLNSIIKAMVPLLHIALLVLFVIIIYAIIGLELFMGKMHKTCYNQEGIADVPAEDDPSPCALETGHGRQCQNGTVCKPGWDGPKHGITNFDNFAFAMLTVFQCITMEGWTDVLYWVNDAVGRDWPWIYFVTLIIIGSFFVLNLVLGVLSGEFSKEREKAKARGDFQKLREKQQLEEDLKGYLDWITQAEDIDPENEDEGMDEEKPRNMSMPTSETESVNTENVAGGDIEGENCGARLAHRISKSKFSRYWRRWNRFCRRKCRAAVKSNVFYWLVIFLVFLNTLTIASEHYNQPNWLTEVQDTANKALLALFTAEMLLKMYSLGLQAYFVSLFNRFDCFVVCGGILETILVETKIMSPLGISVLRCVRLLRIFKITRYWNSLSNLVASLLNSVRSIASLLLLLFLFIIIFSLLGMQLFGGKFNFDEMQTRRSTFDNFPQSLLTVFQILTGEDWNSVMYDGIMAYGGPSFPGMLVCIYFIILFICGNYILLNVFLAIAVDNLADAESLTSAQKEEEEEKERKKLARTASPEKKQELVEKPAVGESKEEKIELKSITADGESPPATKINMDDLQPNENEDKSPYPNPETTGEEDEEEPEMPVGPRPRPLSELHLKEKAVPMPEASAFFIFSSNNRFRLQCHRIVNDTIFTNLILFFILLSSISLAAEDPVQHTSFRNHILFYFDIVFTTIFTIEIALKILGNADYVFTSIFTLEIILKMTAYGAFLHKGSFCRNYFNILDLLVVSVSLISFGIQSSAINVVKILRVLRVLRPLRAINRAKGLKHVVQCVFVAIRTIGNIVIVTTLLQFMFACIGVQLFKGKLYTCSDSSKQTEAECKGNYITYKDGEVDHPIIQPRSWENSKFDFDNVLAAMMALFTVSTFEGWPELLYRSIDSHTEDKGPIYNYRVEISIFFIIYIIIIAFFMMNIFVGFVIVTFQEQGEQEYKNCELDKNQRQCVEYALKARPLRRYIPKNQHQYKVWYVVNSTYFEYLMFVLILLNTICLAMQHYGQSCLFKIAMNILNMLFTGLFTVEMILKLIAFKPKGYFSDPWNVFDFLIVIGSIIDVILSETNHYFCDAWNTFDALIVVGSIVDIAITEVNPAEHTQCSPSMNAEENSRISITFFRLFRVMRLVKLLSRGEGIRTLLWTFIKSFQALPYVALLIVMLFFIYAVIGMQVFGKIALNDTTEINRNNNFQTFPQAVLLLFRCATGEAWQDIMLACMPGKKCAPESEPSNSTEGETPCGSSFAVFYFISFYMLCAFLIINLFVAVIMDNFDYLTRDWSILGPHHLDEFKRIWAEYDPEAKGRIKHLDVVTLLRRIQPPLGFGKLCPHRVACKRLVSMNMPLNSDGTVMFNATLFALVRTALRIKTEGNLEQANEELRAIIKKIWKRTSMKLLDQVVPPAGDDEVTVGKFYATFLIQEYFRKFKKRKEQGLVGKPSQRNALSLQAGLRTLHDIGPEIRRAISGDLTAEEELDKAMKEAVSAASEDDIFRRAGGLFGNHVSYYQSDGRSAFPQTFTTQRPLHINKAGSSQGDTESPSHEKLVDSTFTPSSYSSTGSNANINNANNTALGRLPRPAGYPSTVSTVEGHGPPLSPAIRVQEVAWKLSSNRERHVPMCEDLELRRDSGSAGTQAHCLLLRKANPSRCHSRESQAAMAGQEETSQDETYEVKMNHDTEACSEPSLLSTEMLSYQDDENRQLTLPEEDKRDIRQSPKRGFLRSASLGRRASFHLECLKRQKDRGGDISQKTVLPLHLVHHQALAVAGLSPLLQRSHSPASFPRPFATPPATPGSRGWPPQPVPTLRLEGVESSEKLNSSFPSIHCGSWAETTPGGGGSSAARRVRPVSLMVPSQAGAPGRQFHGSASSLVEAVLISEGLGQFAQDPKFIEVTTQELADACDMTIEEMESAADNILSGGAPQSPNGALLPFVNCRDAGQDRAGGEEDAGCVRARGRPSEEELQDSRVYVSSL
T2 sequence (Q08289 whole entry partner): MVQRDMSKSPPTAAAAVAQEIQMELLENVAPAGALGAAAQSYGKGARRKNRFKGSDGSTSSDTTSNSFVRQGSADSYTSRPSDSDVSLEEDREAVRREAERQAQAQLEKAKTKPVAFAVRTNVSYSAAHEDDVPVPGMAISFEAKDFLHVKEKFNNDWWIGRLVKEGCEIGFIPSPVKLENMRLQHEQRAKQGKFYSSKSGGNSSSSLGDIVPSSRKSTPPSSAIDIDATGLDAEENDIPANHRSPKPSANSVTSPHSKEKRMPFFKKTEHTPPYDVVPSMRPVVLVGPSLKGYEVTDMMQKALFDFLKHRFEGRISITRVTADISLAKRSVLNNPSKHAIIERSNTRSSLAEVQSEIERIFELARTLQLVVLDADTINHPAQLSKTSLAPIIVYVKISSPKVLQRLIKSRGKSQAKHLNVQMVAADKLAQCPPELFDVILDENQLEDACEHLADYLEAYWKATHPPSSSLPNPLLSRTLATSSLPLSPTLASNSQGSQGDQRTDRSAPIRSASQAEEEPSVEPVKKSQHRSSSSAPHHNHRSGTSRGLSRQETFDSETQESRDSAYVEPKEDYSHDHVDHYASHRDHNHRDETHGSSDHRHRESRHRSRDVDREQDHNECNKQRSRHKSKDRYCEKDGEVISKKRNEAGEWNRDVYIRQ
T2 sequence (P54289 25-1103 partner): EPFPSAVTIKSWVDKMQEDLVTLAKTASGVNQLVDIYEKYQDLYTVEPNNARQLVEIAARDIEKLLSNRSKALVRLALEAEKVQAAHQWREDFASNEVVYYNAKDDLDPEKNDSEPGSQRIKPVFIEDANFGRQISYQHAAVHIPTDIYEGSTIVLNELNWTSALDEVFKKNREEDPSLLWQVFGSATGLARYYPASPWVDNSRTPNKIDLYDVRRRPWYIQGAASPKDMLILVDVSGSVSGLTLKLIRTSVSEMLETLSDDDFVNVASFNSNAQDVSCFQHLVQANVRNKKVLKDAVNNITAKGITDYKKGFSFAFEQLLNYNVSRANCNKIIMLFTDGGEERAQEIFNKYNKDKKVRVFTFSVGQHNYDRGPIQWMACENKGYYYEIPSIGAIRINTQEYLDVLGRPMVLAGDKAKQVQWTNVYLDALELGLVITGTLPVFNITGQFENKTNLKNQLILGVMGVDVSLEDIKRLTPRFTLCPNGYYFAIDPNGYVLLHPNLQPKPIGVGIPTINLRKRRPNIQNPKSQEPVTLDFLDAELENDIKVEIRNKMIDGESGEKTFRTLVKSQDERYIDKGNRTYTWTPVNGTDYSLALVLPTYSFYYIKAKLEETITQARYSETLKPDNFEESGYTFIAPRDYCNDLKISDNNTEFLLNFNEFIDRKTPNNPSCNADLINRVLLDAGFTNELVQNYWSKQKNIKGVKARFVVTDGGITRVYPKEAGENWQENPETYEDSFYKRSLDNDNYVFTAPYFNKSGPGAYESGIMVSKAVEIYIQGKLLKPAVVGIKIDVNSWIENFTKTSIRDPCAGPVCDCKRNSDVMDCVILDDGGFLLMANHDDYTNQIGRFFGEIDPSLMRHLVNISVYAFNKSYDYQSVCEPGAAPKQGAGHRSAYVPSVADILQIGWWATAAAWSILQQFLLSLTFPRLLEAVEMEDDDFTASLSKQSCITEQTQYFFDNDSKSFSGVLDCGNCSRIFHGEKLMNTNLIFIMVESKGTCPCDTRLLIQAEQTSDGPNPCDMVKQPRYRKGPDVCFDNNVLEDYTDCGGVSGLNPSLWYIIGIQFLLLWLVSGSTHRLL
Protocol: Compound A stock solutions were prepared in dimethyl sulfoxide (DMSO) and stored frozen. Compound A concentrations were prepared fresh daily by diluting stock solutions into an appropriate HEPES-buffered physiological saline solution. Each test compound formulation was sonicated at room temperatrue for at least 20 minutes to facilitate dissolution. A glass-lined 96-well compound plate was loaded with the appropriate amounts of test and control solutions, and placed in the plate well of PatchXpress®. The effects of five concentrations were evaluated. Stock solutions of the positive control were prepared in batches and frozen. The positive control concentration was prepared fresh daily by diluting stock solutions into HB-PS. The final DMSO concentration was 0.3%.
Cells were maintained in tissue culture incubators per ChanTest SOP. […]
In preparation for a recording session, intracellular solution was loaded into the intracellular compartments of the planar electrode. After establishment of a whole-cell configuration, membrane currents were recorded using dual-channel patch clamp amplifiers in the PatchXpress® system. […] Onset and steady state block of hCav.1.2/β2/α2δ channels were measured using a stimulus voltage pattern consisting of a depolarizing test pulse at 10 s intervals from a −80 mV holding potential. […] Peak current was measured during the step to 10 mV. […]

[7] = test system: SOCE in rat T cells; test: SOCE in rat T cells; type: cell-based; conditions: T-cell, FIG. 5, read-out: IC50 for inhibition of SOCE
[8] = test system: SOCE; test: Selectivity profile; conditions: FIG. 8
[9] = Rat collagen induced arthritis (CIA) model, liver weight; type: in vivo; conditions: given orally, FIG. 11
Protocol: 40 rats are injected with collagen to get 40 solid responders on days 10,11 for 4 groups of 10. Four nonimmunized animals serve as normal controls.
Collagen is prepared by making a 4 mg/ml solution in 0.01N Acetic acid. Equal volumes of collagen and Freund's incomplete adjuvant, are emulsified by hand mixing until a bead of this material holds its form when placed in water.
Animals (10 rats/group for arthritis, 4 rats/group for normal control).
Animals in groups 2-5 are anesthetized with isoflurane and given collagen injections (DO); each animal gets 300 μl of the mixture spread over 3 subcutaneous sites on the back. On Day 6 (D6) the animals are anesthetized again and given a second collagen injection, as before.
Rats are weighed on Days 0, 3, 6, and 9-17 of arthritis, and caliper measurements of ankles taken every day beginning on Day 9. Final body weights are taken on Day 17 of arthritis. On Day 17, all animals are anesthetized for terminal blood draw and then euthanized. Subsequently, hind paws and knees are removed, the hind paws are weighed and then (with knees) placed in formalin for processing for microscopy. Livers, spleen and thymus and kidneys are also removed, trimmed of extraneous tissue and weighed. Kidneys are retained in formalin for histopathology.
Sampling will occur over 1 day and involves groups 2-5 with samples retained from all groups.

O=C(Nc1scc(-c2ccc(Br)cc2)c1C(=O)O)c1ccc(F)cc1 [Compound 1, 2-(4-fluorobenzamido)-4-(4-bromophenyl)thiophene-3-carboxylic acid]
IC50 [1]: ~4300 nM | inhibition of the initial kinetics of the CRAC channel response ([2]; RBL-2H3 cells, FIG. 2): concentration-dependent inhibition | inhibition at 10 µM ([2]; Rattus norvegicus, RBL-2H3, 10 μM, cell line not stated): > 70% | IC50 ([2]; Rattus norvegicus, Up slope parameter, RBL-2H3 cells): 2.2 µM | effect on recombinant hOrail/hSTIM1-dependent Ca2+ entry [3]: inhibition | effect on STIM1-dependent Ca2+ entry [4]: concentration dependent inhibition; also recorded: blocked | IC50 ([5]; RBL-2H3, 2 hour TG/TPA induction in HBSS+1% serum, 10 minute pretreatment, FIG. 4, read-out: IC50 for inhibition of degranulation, presence of serum): 1000 to 3000 nM | IC50 ([5]; RBL-2H3, 2 hour TG/TPA induction in HBSS, 10 minute pretreatment, FIG. 4, read-out: apparent IC50 for inhibition of degranulation, absence of serum): < 300 nM | IC50 ([5]; RBL-2H3 cells induced with TG/TPA, FIG. 3, read-out: IC50 for inhibition of degranulation): 2600 nM | effect on recombinant Cav1.2 L-type Ca2+ channels [6]: inhibits | IC50 [7]: ~2400 nM | selectivity profile [8]: selective inhibitor of SOCE | reduction in liver weight [9]: no liver weight reduction
